Consider 2 compounds from patent publication US7799805B2, “Piperidine carboxylic acid amide derivatives” (Actelion Pharmaceuticals Ltd., priority 2005, dated 2010).

A word on the IC50: it is the concentration that inhibits the measured activity by half.

This assay addresses T1, recombinant human renin (Homo sapiens, UniProt P00797).
T1 sequence (P00797 67-406): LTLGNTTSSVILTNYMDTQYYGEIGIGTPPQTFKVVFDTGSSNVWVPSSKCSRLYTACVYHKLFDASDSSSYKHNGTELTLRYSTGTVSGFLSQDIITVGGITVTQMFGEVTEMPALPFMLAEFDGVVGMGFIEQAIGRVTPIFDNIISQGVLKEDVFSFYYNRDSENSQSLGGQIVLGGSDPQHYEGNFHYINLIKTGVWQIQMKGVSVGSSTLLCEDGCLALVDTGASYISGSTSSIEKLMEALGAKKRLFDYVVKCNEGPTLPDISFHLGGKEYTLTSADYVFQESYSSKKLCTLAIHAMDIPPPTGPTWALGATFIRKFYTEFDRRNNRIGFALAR
In words: Primary renin inhibition assay: IC50 in buffer, 384 well MTP (AngI quantified by EIA).

Procedure: Enzyme Immuno Assay (EIA) to Estimate AngI Accumulation and Renin Inhibition
96 well MTP (MaxiSorp™, Nunc) were coated with 200 μl conjugate and blocked with 250 μl blocking solution as above, except that the blocking solution contained 3% BSA.
1.3 AngI-EIA in 384 well MTP
The AngI (1-10)/BSA coated MTP were washed 3 times with wash buffer (PBS 1×, 0.01% Tween 20) and filled with 75 μl of primary antibody solution (anti-AngI antiserum, pre-diluted 1:10 in horse serum), diluted to a final concentration of 1:100,000 in assay buffer (PBS 1×, 1 mM EDTA, 0.1% BSA, pH 7.4). 5 μl of the renin reaction (or standards in assay buffer) (see below) were added to the primary antibody solution and the plates were incubated overnight at 4° C. After the incubation the plates were washed 3 times with wash buffer and incubated with secondary antibody [anti-rabbit IgG, linked to horseradish peroxidase (Amersham Bioscience, NA 934V), diluted 1:2,000 in wash buffer] for 2 h at rt. […]
In the second step, the accumulated AngI is measured by an immunological assay (enzyme immuno assay, EIA). […]
Test compounds were dissolved and diluted in 100% DMSO and 2.5 μl added to the premix, then incubated at 37° C. for 3 h. At the end of the incubation period, 5 μl of the renin reaction (or standards in assay buffer) were transferred into EIA assays (as described above) and AngI produced by renin was quantified.

Turning to `O=C([C@@H]1[C@@H](c2ccc(CCCOc3c(F)ccc(F)c3Cl)cc2)C[C@@H]2CNC[C@H]1N2)N(Cc1cccc(Cl)c1Cl)C1CC1` (racemic) [Example 2, (rac.)-(1R*,5S*,6R*,7S*)-7-{4-[3-(2-Chloro-3,6-difluoro-phenoxy)-propyl]-phenyl}-3,9-diaza-bicyclo[3.3.1]nonane-6-carboxylic acid cyclopropyl-(2,3-dichloro-benzyl)-amide], the IC50 came out at 0.19 nM.

In the case of `O=C([C@H]1[C@H]2CNC[C@@H](C[C@H]1c1ccc(CCCOc3c(F)ccc(F)c3Cl)cc1)N2)N(Cc1cccc(Cl)c1Cl)C1CC1` (racemic) [Example 1, (rac.)-(1R*,5S*,6R*,7R*)-7-{4-[3-(2-Chloro-3,6-difluoro-phenoxy)-propyl]-phenyl}-3,9-diaza-bicyclo[3.3.1]nonane-6-carboxylic acid cyclopropyl-(2,3-dichloro-benzyl)-amide], the IC50 was 0.65 nM.
